Patent US20040265288A1, “New applications of gene therapy technology” (priority 1995, published 2004)
Read-outs that look alike come from different tables or passages of the source.

Legend:
[1] = tested on: transmembrane receptors that are activated by oligomerization; experiment: Dimerization of transmembrane receptors; type: cell-based
cells = experiment: Toxicity to cells; type: cell-based
[2] = Solubility in aqueous culture medium; type: physicochemical; conditions: serial dilution in (aqueous) culture medium
Method: Working concentrations of AP1510 can be obtained by adding compound directly from ethanol stocks, or by diluting serially in culture medium just before use. In the latter case it is recommended that the highest concentration not exceed 5 uM, to ensure complete solubility in the (aqueous) medium. In either case, the final concentration of ethanol in the medium added to mammalian cells should be kept below 0.5% (a 200-fold dilution of a 100% ethanol solution) to prevent detrimental effects of the solvent on the cells.

[3] = Immunosuppressive activity of dimerizer
[4] = tested on: FKBP12-containing fusion proteins (3xFKBP-p65 / ZFHD1-3xFKBP transcription factors); experiment: Dimerizer-regulated gene expression (SEAP or hGH reporter) in transfected cells; type: cell-based, human; conditions: for activation of transcription with stably integrated constructs: cells in which transcription factor and reporter gene constructs are all stably integrated
Method: To screen clones it is convenient to transiently transfect cells in a 96-well format. Lipofectamine is used to introduce 50 ng total DNA/96-well under conditions recommended by the manufacturer (Gibco/BRL). If introducing both the transcription factor and target gene plasmids transiently, use 20 ng of each plasmid and 10 ng of carrier DNA (it may be necessary to optimize plasmid ratios and transfection conditions for each cell type). If only introducing one plasmid, bring to 50 ng with carrier DNA.
Following transfection, add medium +/−100 nM AP1510 dimerizer (or try a range of concentrations).
After overnight incubation (or longer), assay for target gene expression.
Secreted alkaline phosphatase activity can be easily measured from the supernatant of appropriately transfected cells using fluorescence-(see (10)), or chemiluminescence-(Tropix, Bedford, Mass.) based assays. Samples to be tested should first be incubated at 65° C. for 1 hour to inactivate endogenous alkaline phosphatase activity.
In gene regulation applications, expression becomes detectable at an AP1510 concentration of approximately 10 nM, and peaks at approximately 100 nM. When SEAP or hGH reporter systems are used, expression can be easily detected after an overnight incubation with dimerizer. In our experience, the efficacy is generally similar for other dimerization applications. A range of concentrations from 1 nM to 1 uM will typically provide a good dose-response profile in both cases.

FKBP12 = FKBP12 (Homo sapiens, UniProt P62942); conditions: linker positioned in the calcineurin binding domain of FK506; cited from earlier work
Sequence of FKBP12 (P62942 whole entry, the tested form may be a part): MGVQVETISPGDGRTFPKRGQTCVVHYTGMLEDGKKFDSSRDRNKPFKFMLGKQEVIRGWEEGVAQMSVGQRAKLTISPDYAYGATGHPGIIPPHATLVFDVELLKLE

[5] = linker positioned in the calcineurin binding domain of FK506; cited from earlier work
[6] = gene regulation applications, SEAP or hGH reporter, overnight incubation with dimerizer

| Compound | dimerization of transmembrane receptors [1] | toxicity to cells (cells) | highest concentration ensuring complete solubility in medium [2] [µM] | immunosuppressive activity [3] | activation of transcription with stably integrated constructs [4] | activation of transcription compared with FK1012 ([4]; gene regulation applications) | AP1510 concentration at which expression becomes detectable [4, 6] | AP1510 concentration at which expression peaks [4, 6] | FKBP12 binding (FKBP12) | immunosuppressive activity [5] |
| --- | --- | --- | --- | --- | --- | --- | --- | --- | --- | --- |
| CCC(C)(C)C(=O)C(=O)N1CCCC[C@H]1C(=O)O[C@H](CCc1ccc(OC)c(OC)c1)c1cccc(OCC(=O)NCCNC(=O)COc2cccc([C@@H](CCc3ccc(OC)c(OC)c3)OC(=O)[C@@H]3CCCCN3C(=O)C(=O)C(C)(C)CC)c2)c1 [AP1510] | successfully used to dimerize | non-toxic to cells | ≤ 5 | no immunosuppressive activity | activates transcription efficiently | at lower concentrations and to a higher level than FK1012 | approximately 10 nM | approximately 100 nM | – | – |
| FK1012 | – | – | – | – | poor | – | – | – | unaffected | abolishes immunosuppressive activity |
